The record followed here is patent publication US20230183237A1, “COMPETITIVE AND NONCOMPETITIVE INHIBITORS OF THE MUSCARINIC ACETYLCHOLINE RECEPTOR M5” (Vanderbilt University, priority 2020, published 2023).

The structures appear in SMILES notation.

This experiment has as its target T1, hM5 (Homo sapiens, UniProt P08912).
T1 construct: expressed in transfected cells
T1 sequence (P08912 1-532): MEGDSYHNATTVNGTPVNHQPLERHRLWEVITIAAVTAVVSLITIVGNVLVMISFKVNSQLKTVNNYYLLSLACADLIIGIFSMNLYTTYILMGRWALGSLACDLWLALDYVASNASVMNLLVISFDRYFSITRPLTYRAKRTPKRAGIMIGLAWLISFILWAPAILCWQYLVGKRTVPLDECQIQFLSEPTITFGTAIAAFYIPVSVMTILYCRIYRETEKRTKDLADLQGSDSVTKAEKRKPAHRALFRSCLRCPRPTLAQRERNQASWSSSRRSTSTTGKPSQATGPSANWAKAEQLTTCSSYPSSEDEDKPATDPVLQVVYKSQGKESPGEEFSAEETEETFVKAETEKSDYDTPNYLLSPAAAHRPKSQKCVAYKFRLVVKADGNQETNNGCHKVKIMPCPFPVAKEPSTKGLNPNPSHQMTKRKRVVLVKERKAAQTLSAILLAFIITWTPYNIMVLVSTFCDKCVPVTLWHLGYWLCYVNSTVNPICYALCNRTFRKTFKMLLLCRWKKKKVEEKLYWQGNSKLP
In words: Calcium mobilization concentration-response (IC50 vs EC80 acetylcholine), CHO hM5. Format: cell-based. Particulars: CELL LINE hM5; calcium mobilization, EC80 acetylcholine addition; read-out: IC50. On the procedure:
Initial, single point (10 μM) compound characterization was performed in stable Chinese Hamster Ovary (CHO) cell lines constitutively expressing human M5 receptors. These were plated at 15,000 cells per 20 μL per well in Greiner 384-well black-walled, TC-treated, clear-bottomed plates (Fisher) in Ham's F12 medium supplemented with 10% FBS and 20 mM HEPES. Cells were incubated overnight at 37° C. under 5% CO2. The following day, medium was exchanged with assay buffer (Hank's Balanced Salt Solution supplemented with 20 mM HEPES and 2.5 mM Probenecid, pH 7.4) leaving 20 μL of assay buffer in each well. […] The cells were then incubated 50 minutes at 37° C. under 5% CO2. The assay buffer plus dye was then exchanged with fresh assay buffer leaving a volume of 20 μL in each well. Test compounds were diluted into assay buffer to a 2X (20 μM) concentration in 0.2% dimethylsulfoxide (DMSO) in columns 3-22 with matching DMSO concentration in columns 1, 2, 23, and […]; compounds were added to the assay for a final concentration of 10 μM and a final DMSO concentration of 0.1%.
Either an FDSS (Hamamatsu) or Panoptic (WaveFront Biosciences) kinetic imaging plate reader was used for assay execution and measurement of calcium flux. After establishing baseline fluorescence, test compounds (20 μL) were added to the cells using the reader's integrated pipettor and allowed to equilibrate for 140 seconds before addition of the […] concentration of acetylcholine (10 μL) along with vehicle in selected DMSO-only wells in the outer two columns . […] The raw fluorescence data from each well was normalized to the corresponding initial fluorescence reading (static ratio). The maximum fluorescence value following each addition was determined and the minimum value within that same timeframe was subtracted for each well then normalized to the average of the ECffiax maximum-minimum response, providing a % AChmax value for each addition for each well. The single point values represent mean values determined within the ECsu addition timeframe obtained from at least three independent determinations performed in triplicate or greater (error bars represent +/−SEM) unless otherwise specified.
CHO cells stably expressing hM1, hM2/Gqi5, hM3, hM4/Gqi5, hM5, rM1/Gqi5, rM3, rM4/Gqi5, or rM5 were plated in the manner described above. […] FDSS protocols were carried out as described above; the static ratio was calculated and the minimum response subtracted from the maximum response within the timeframe of each addition. This max-min response was then normalized to the maximum acetylcholine response. Calculation of IC50 was performed using the percent maximum acetylcholine response for the EC80 addition through the Vortex and Studies modules of the Dotmatics data management software. Results are stored in the Dotrnatics database and an audit trail of any changes to their analysis is generated. Data shown represent mean values obtained from at least three independent determinations performed in triplicate or greater (error bars represent±SEM) unless otherwise specified.
As a reminder, the IC50 is the midpoint of a concentration-inhibition curve. On to `Cc1nc2[nH]ccc2nc1C1CCN(S(=O)(=O)c2ccc3c(c2)CCO3)CC1` [Compound 15, 2-(1-((2,3-dihydrobenzofuran-5-yl)sulfonyl)piperidin-4-yl)-3-methyl-5H-pyrrolo[2,3-b]pyrazine], for which the IC50 is over 10 µM.

In the case of `Cc1nc2[nH]ccc2nc1C1CCN(S(=O)(=O)c2ccc3ncsc3c2)CC1` [Compound 16, 6-((4-(3-methyl-5H-pyrrolo[2,3-b]pyrazin-2-yl)piperidin-1-yl)sulfonyl)benzo[d]thiazole], the IC50 is over 10 µM.

Turning to `Cc1cc2nccn2nc1C1CCN(S(=O)(=O)c2ccc3c(c2)CCO3)CC1` [Compound 17, 6-(1-((2,3-dihydrobenzofuran-5-yl)sulfonyl)piperidin-4-yl)-7-methylimidazo[1,2-b]pyridazine], the IC50 is 0.839 µM.

With `Cc1cn2cc(C3CCN(S(=O)(=O)c4ccc5c(c4)CCO5)CC3)ncc2n1` [Compound 18, 6-(1-((2,3-dihydrobenzofuran-5-yl)sulfonyl)piperidin-4-yl)-2-methylimidazo[1,2-a]pyrazine], the IC50 is over 10 µM.

Consider `O=S(=O)(c1ccc2ncsc2c1)N1CCC(c2cc3[nH]ncc3cn2)CC1` [Compound 19, 6-((4-(1H-pyrazolo[4,3-c]pyridin-6-yl)piperidin-1-yl)sulfonyl)benzo[d]thiazole], for which the IC50 is over 10 µM.

Consider `O=S(=O)(c1ccc2ncccc2c1)N1CCC(c2cc3[nH]ncc3cn2)CC1` [Compound 20, 6-((4-(1H-pyrazolo[4,3-c]pyridin-6-yl)piperidin-1-yl)sulfonyl)quinoline], for which the IC50 was over 10 µM.

As to `O=S(=O)(c1ccc2c(c1)CCO2)N1CCC(c2cc3cc[nH]c3nn2)CC1` [Compound 21, 3-(1-((2,3-dihydrobenzofuran-5-yl)sulfonyl)piperidin-4-yl)-7H-pyrrolo[2,3-c]pyridazine], the IC50 was found to be 2.2 µM.

In the case of `O=S(=O)(c1ccc2ncsc2c1)N1CCC(c2cc3cc[nH]c3nn2)CC1` [Compound 22, 6-((4-(7H-pyrrolo[2,3-c]pyridazin-3-yl)piperidin-1-yl)sulfonyl)benzo[d]thiazole], the IC50 is 2.6 µM.

For `O=S(=O)(c1ccc2ncccc2c1)N1CCC(c2cc3cc[nH]c3nn2)CC1` [Compound 23, 6-((4-(7H-pyrrolo[2,3-c]pyridazin-3-yl)piperidin-1-yl)sulfonyl)quinoline], the IC50 was found to be 2.56 µM.

For `O=S(=O)(c1ccc2c(c1)CCO2)N1CCC(c2cc3cc[nH]c3cn2)CC1` [Compound 24, 5-(1-((2,3-dihydrobenzofuran-5-yl)sulfonyl)piperidin-4-yl)-1H-pyrrolo[2,3-c]pyridine], the IC50 was over 10 µM.

For `O=S(=O)(c1ccc2ncsc2c1)N1CCC(c2cc3cc[nH]c3cn2)CC1` [Compound 25, 6-((4-(1H-pyrrolo[2,3-c]pyridin-5-yl)piperidin-1-yl)sulfonyl)benzo[d]thiazole], the IC50 was over 10 µM.

In the case of `O=S(=O)(c1ccc2ncccc2c1)N1CCC(c2cc3cc[nH]c3cn2)CC1` [Compound 26, 6-((4-(1H-pyrrolo[2,3-c]pyridin-5-yl)piperidin-1-yl)sulfonyl)quinoline], the IC50 was over 10 µM.

Consider `O=S(=O)(c1ccc2c(c1)CCO2)N1CCC(c2cn3ccnc3cn2)CC1` [Compound 27, 6-(1-((2,3-dihydrobenzofuran-5-yl)sulfonyl)piperidin-4-yl)imidazo[1,2-a]pyrazine], for which the IC50 is over 10 µM.

As for `O=S(=O)(c1ccc2c(c1)CCO2)N1CCC(c2ccc3occc3n2)CC1` [Compound 28, 5-(1-((2,3-dihydrobenzofuran-5-yl)sulfonyl)piperidin-4-yl)furo[3,2-b]pyridine], the half-maximal inhibitory concentration (IC50) was over 10 µM.

As to `O=S(=O)(c1ccc2c(c1)CCO2)N1CCC(c2cc3[nH]ccc3cn2)CC1` [Compound 29, 6-(1-((2,3-dihydrobenzofuran-5-yl)sulfonyl)piperidin-4-yl)-1H-pyrrolo[3,2-c]pyridine], the IC50 was determined as 2 µM.

Take `O=S(=O)(c1ccc2ncsc2c1)N1CCC(c2cc3[nH]ccc3cn2)CC1` [Compound 30, 6-((4-(1H-pyrrolo[3,2-c]pyridin-6-yl)piperidin-1-yl)sulfonyl)benzo[d]thiazole]: the IC50 is over 10 µM.

Take `O=S(=O)(c1ccc2ncccc2c1)N1CCC(c2cc3[nH]ccc3cn2)CC1` [Compound 31, 6-((4-(1H-pyrrolo[3,2-c]pyridin-6-yl)piperidin-1-yl)sulfonyl)quinoline]: the IC50 is over 10 µM.

`O=S(=O)(c1ccc2c(c1)CCO2)N1CCC(c2ncc3cc[nH]c3n2)CC1` [Compound 33, 2-(1-((2,3-dihydrobenzofuran-5-yl)sulfonyl)piperidin-4-yl)-7H-pyrrolo[2,3-d]pyrimidine]: the IC50 was over 10 µM.

Regarding `Cc1cc2nccn2nc1C1=CCN(S(=O)(=O)c2ccc3c(c2)CCO3)CC1` [Compound 34, 6-(1-((2,3-dihydrobenzofuran-5-yl)sulfonyl)-1,2,3,6-tetrahydropyridin-4-yl)-7-methylimidazo[1,2-b]pyridazine], the IC50 was over 10 µM.

Regarding `Cc1cc2ncnn2cc1C1=CCN(S(=O)(=O)c2ccc3c(c2)CCO3)CC1` [Compound 35, 6-(1-((2,3-dihydrobenzofuran-5-yl)sulfonyl)-1,2,3,6-tetrahydropyridin-4-yl)-7-methyl-[1,2,4]triazolo[1,5-a]pyridine], the IC50 was 0.518 µM.

Take `Cc1cc2nccn2nc1N1CCN(S(=O)(=O)c2ccc3c(c2)CCO3)CC1` [Compound 36, 6-(4-((2,3-Dihydrobenzofuran-5-yl)sulfonyl)piperazin-1-yl)-7-methylimidazo[1,2-b]pyridazine]: the IC50 turned out to be 4 µM.

Regarding `Cc1cc2nccn2nc1C1CCN(S(=O)(=O)c2ccc(Cl)s2)CC1` [Compound 37, 6-(1-((5-chlorothiophen-2-yl)sulfonyl)piperidin-4-yl)-7-methylimidazo[1,2-b]pyridazine], the concentration for half-maximal inhibition (IC50) was over 10 µM.

With `Cc1cc2nccn2nc1C1CCN(S(=O)(=O)c2ccc3ncsc3c2)CC1` [Compound 38, 6-((4-(7-methylimidazo[1,2-b]pyridazin-6-yl)piperidin-1-yl)sulfonyl)benzo[d]thiazole], the IC50 stood at 4.2 µM.

Consider `Cc1cc2nccn2nc1C1CCN(S(=O)(=O)c2ccc3ncccc3c2)CC1` [Compound 39, 6-((4-(7-methylimidazo[1,2-b]pyridazin-6-yl)piperidin-1-yl)sulfonyl)quinoline], for which the half-inhibitory concentration (IC50) is over 10 µM.

For `Cc1cc2nccn2nc1C1CCN(S(=O)(=O)c2ccc3c(c2)OCO3)CC1` [Compound 40, 6-(1-(benzo[d][1,3]dioxol-5-ylsulfonyl)piperidin-4-yl)-7-methylimidazo[1,2-b]pyridazine], the IC50 was over 10 µM.

In the case of `COc1ccc(S(=O)(=O)N2CCC(c3nn4ccnc4cc3C)CC2)c(C)c1` [Compound 41, 6-(1-((4-methoxy-2-methylphenyl)sulfonyl)piperidin-4-yl)-7-methylimidazo[1,2-b]pyridazine], the IC50 is over 10 µM.

Take `COc1ccc(S(=O)(=O)N2CCC(c3nn4ccnc4cc3C)CC2)cn1` [Compound 42, 6-(1-((6-methoxypyridin-3-yl)sulfonyl)piperidin-4-yl)-7-methylimidazo[1,2-b]pyridazine]: the IC50 was over 10 µM.

Consider `Cc1cc2nccn2nc1C1CCN(S(=O)(=O)c2ccc3c(c2)CCCO3)CC1` [Compound 43, 6-(1-(chroman-6-ylsulfonyl)piperidin-4-yl)-7-methylimidazo[1,2-b]pyridazine], for which the IC50 is 3.6 µM.

As for `O=S(=O)(c1ccc2c(c1)CCO2)N1CCC(c2nnc(NCc3ccccc3)cc2C(F)(F)F)CC1` [Compound 44], the IC50 came out at 5.6 µM.
